The values below come from patent US10131652B2, “Pyrimidinyloxy benzene derivatives as herbicides” (E. I. DU PONT DE NEMOURS AND COMPANY, priority 2014, dated 2018).

Assay type in all cases: in vivo
In test [1] the test system is barnyardgrass (Echinochloa crus-galli). As to the kind of experiment: Test C flooded paddy test plant response. The following applies: Echinochloa crus-galli; Flood, 250 g ai/ha; scale of 0 to 100 where 0 is no effect and 100 is complete control; 13 to 15 days; read-out: Barnyardgrass plant response rating. In outline:
(§1)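 Plants grown to 2-leaf stage, flooded 3 cm above soil; compounds applied directly into paddy water, depth kept throughout. Visual rating versus controls after 13 to 15 days in greenhouse, 0 (no effect) to 100 (complete control).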

Test [2] relates to small-flower umbrella sedge (Cyperus difformis). Kind of test: Test C flooded paddy test plant response. As to conditions: Cyperus difformis; Flood, 250 g ai/ha; scale of 0 to 100 where 0 is no effect and 100 is complete control; 13 to 15 days; read-out: Sedge, Umbrella plant response rating. In outline:
as §1

For another test, the system named is rice (Oryza sativa). As to the kind of experiment: Test C flooded paddy test plant response. As to conditions: Oryza sativa; Flood, 250 g ai/ha; scale of 0 to 100 where 0 is no effect and 100 is complete control; 13 to 15 days; read-out: Rice plant response rating. The essentials:
as §1

Test [3] relates to ducksalad (Heteranthera limosa). As to the kind of experiment: Test C flooded paddy test plant response. As to conditions: Heteranthera limosa; Flood, 250 g ai/ha; scale of 0 to 100 where 0 is no effect and 100 is complete control; 13 to 15 days; read-out: Ducksalad plant response rating. In outline: as §1
Test [4] deals with barnyardgrass (Echinochloa crus-galli). Kind of test: Test B pre-/postemergence plant response. The following applies: Echinochloa crus-galli, 240 h, read-out: Plant response rating, Barnyardgrass; for pest or weed control at 125 g/ha: 125 g ai/ha; for pest or weed control at 500 g/ha: 500 g ai/ha, 0 to 100 scale (0 no effect, 100 complete control). In outline:
(§2)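 Visual injury rating, 0 (no effect) to 100 (complete control), vs untreated controls after ~10 d greenhouse. Pre: directed soil spray after planting in loam/sand. Post: plants 2–10 cm, 1–2 leaf stage. Compound in non-phytotoxic solvent plus surfactant.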

For the next test, the system named is corn (Zea mays). Kind of test: Test B pre-/postemergence plant response. As to conditions: Zea mays, 240 h; for Corn plant response rating (crop injury, 0 = no effect, 100 = complete kill) at 125 g/ha: 125 g ai/ha; for Corn plant response rating (crop injury, 0 = no effect, 100 = complete kill) at 500 g/ha: 500 g ai/ha, 0 to 100 scale (0 no effect, 100 complete control). In outline:
as §2

Test [5] relates to pigweed (Amaranthus retroflexus). As to the kind of experiment: Test B pre-/postemergence plant response. The following applies: Amaranthus retroflexus, 240 h, read-out: Plant response rating, Pigweed; for pest or weed control at 125 g/ha: 125 g ai/ha; for pest or weed control at 500 g/ha: 500 g ai/ha, 0 to 100 scale (0 no effect, 100 complete control). In outline: as §2
Test [6] relates to giant foxtail (Setaria faberii). As to the kind of experiment: Test B pre-/postemergence plant response. The following applies: Setaria faberi, 240 h, read-out: Plant response rating, Foxtail, Giant; for pest or weed control at 125 g/ha: 125 g ai/ha; for pest or weed control at 500 g/ha: 500 g ai/ha, 0 to 100 scale (0 no effect, 100 complete control). In outline:
as §2

For test [7], the system named is wheat (Triticum aestivum). As to the kind of experiment: Test B pre-/postemergence plant response. As to conditions: Triticum aestivum, 240 h, read-out: Plant response rating, Wheat; for plant injury at 125 g/ha: 125 g ai/ha; for plant injury at 500 g/ha: 500 g ai/ha, 0 to 100 scale (0 no effect, 100 complete control). In outline: as §2
Setting [8] is: post-emergence, postemergence, 0 to 100 scale, 0 no effect, 100 complete control.
[9] abbreviates: pre-emergence, Preemergence, 0 to 100 scale where 0 is no effect and 100 is complete control.

The structures appear in SMILES notation. Read-outs that look alike come from different tables or passages of the source.

Take `Cc1ccc(Oc2ncc(Cl)cn2)c(-c2ccnc(C(F)(F)F)c2)c1` [Compound 24, 5-chloro-2-[4-methyl-2-[2-(trifluoromethyl)-4-pyridinyl]phenoxy]pyrimidine]: the figures for the pest or weed control at 250 g/ha in [1], in [2] and in test [3] were 0%, 40% and 0%, respectively. Also, the plant injury at 250 g/ha in the test with rice (Oryza sativa) was determined as 0%. Moreover, the pest or weed control at 125 g/ha was determined as 0% in test [4] (setting [8]); 10% in test [4] (setting [9]); 20% in test [5] (setting [8]); 0% in [5] (setting [9]); 30% in test [6] (setting [8]); 20% in test [6] (setting [9]). The pest or weed control at 500 g/ha in test [4] (post-emergence, Postemergence) was determined as 60%; in [4] (pre-emergence, Preemergence), 80%; in [5] (post-emergence, Postemergence) it was 40%; in test [5] (pre-emergence, Preemergence) it was 40%; in test [6] (post-emergence, Postemergence), 90%; in [6] (pre-emergence, Preemergence) it was 90%. The Corn plant response rating (crop injury, 0 = no effect, 100 = complete kill) at 125 g/ha in the test with corn (Zea mays) (setting [8]) and in the test with corn (Zea mays) (setting [9]) was 0% in each case. Also, the Corn plant response rating (crop injury, 0 = no effect, 100 = complete kill) at 500 g/ha with corn (Zea mays) (post-emergence, Postemergence) stood at 40%; with corn (Zea mays) (pre-emergence, Preemergence), 40%. Further, the plant injury at 125 g/ha in test [7] (setting [8]) and in [7] (setting [9]) was 0% throughout. Further, the plant injury at 500 g/ha in test [7] (post-emergence, Postemergence) was 0%; in test [7] (pre-emergence, Preemergence), 0%.
